For series [1], the system named is human beta-coronavirus OC43. The experiment in a line: OC43 Coronavirus Assay in HeLa cells (antiviral, cytopathic effect, cell-titer-glo). The format is cell-based. The settings on record: Table B, OC43 coronavirus in HeLa cells, read-out: EC50. Background: Damage to the host cells serves as the signal in cytopathic effect assays.
For series [2], the system named is HeLa human cervical epithelial cells. Description: Cytotoxicity in HeLa cells without addition of OC43 virus (in parallel). The settings on record: Table B; HeLa cells without OC43 virus, class symbols.
Series [3] deals with A549-dual_ACE2_TMPRSS2 cells. The conditions noted are these: human.
In another series the target is SARS-Cov-2 3CLpro (Severe acute respiratory syndrome coronavirus 2, UniProt P0DTD1). The experiment in a line: biochemical. The conditions noted are these: Table A, class symbols.
The subject of series [4] is SARS-CoV-2 B.1.1.7 lineage. Description: microbe, parasite or virus in culture. The conditions noted are these: Table C, SARS-CoV-2 B.1.1.7 in A549-dual_ACE2_TMPRSS2 cells, read-out: A549-dual_ACE2_TMPRSS2 (EC50). The format is cell-based.
The nature of series [5]: Cytotoxicity in HeLa cells without addition of OC43 virus (in parallel). The settings on record: human, HeLa cells, without OC43 virus.
Series [6] is described as follows: Toxicity testing in A549-dual_ACE2_TMPRSS2 cells without virus (MTS). The conditions noted are these: human.
For series [7], the system named is A549-dual_ACE2_TMPRSS2 cells. The series is described as above. The settings on record: read-out: A549-dual_ACE2_TMPRSS2 (CC50); Table C; A549-dual_ACE2_TMPRSS2 cells without virus, class symbols.
The nature of the next series: in vitro. The conditions noted are these: human.

Like-named read-outs stand apart in the source and are kept apart here.

With `C[C@H](NC(=O)C(F)(F)F)C(=O)N(C)[C@@H](CC1CC1)C(=O)N1C[C@]2(C[C@H]1C#N)C(=O)NCC2Oc1ccccc1` (stereo partly shown) [Compound 94], the EC50 (commonly the concentration giving half of the maximal effect) was more than 10000 nM in series [1] (Betacoronavirus 1, OC43, HeLa, cells given as a bound) and 100 to 1000 nM in series [4] (class symbols). The CC50 in [2] is more than 10 µM; in series [3] it was more than 1000 nM. Also, the IC50 (usually the concentration that inhibits the measured activity by half) at SARS-Cov-2 3CLpro (read-out: SARS-Cov-2 (IC50)) lay within 20 to 200 nM.
On to `CC1NC(=O)[C@]2(C[C@@H](C#N)N(C(=O)[C@H](CC3CC3)N(C)C(=O)[C@H](CC3CC3)NC(=O)C(F)(F)F)C2)Oc2ccccc21` (single isomer, unassigned) [Compound 224, (S)—N—((S)-1-((2R,5R*,5'S)-5′-cyano-5-methyl-3-oxo-4,5-dihydro-3H-spiro[benzo[f][1,4]oxazepine-2,3′-pyrrolidin]-1′-yl)-3-cyclopropyl-1-oxopropan-2-yl)-3-cyclopropyl-N-methyl-2-(2,2,2-trifluoroacetamido)propanamide], for which the EC50 in [1] (class symbols) was less than 100 nM. The CC50 in series [2] is more than 10 µM. Also, the IC50 on SARS-Cov-2 3CLpro (read-out: SARS-Cov-2 (IC50)) was less than 20 nM.
As to `C[C@H](NC(=O)Oc1ccc(F)cc1)C(=O)N(C)[C@@H](CC1CC1)C(=O)N1C[C@@]2(C[C@H]1C#N)Oc1cc(F)cc(F)c1NC2=O` [Compound 119, 4-fluorophenyl ((S)-1-(((S)-1-((2R,5'S)-5′-cyano-5,7-difluoro-3-oxo-3,4-dihydrospiro[benzo[b][1,4]oxazine-2,3′-pyrrolidin]-1′-yl)-3-cyclopropyl-1-oxopropan-2-yl)(methyl)amino)-1-oxopropan-2-yl)carbamate], the EC50 in [1] (Betacoronavirus 1, class symbols) was 100 to 1000 nM; in series [4] (Severe acute respiratory syndrome coronavirus 2, cells given as a bound) it was more than 1000 nM. This compound also yielded a CC50 at 6 days in series [5] of more than 10 µM. The IC50 on SARS-Cov-2 3CLpro (SARS-Cov-2 (IC50)) is less than 20 nM. This compound returned a CC50 in [6] of more than 1000 nM.
Regarding `Cc1nnn(C(CC2CC2)C(=O)N(C)[C@@H](CC2CC2)C(=O)N2C[C@@]3(C[C@H]2C#N)Oc2cc(F)cc(F)c2NC3=O)c1C` (relative stereo) [Compound 118, ((R*)—N—((S)-1-((2R,5'S)-5′-cyano-5,7-difluoro-3-oxo-3,4-dihydrospiro[benzo[b][1,4]oxazine-2,3′-pyrrolidin]-1′-yl)-3-cyclopropyl-1-oxopropan-2-yl)-3-cyclopropyl-2-(4,5-dimethyl-1H-1,2,3-triazol-1-yl)-N-methylpropanamide], the figures for the EC50 in series [1] (cells given as a bound) and in [4] (cells given as a bound) were more than 10000 nM and more than 1000 nM, respectively. Moreover, the results for the CC50 in [2] and in series [7] were more than 10 µM and more than 1000 nM, respectively. Also, the IC50 on SARS-Cov-2 3CLpro (read-out: SARS-Cov-2 (IC50)) was in the range of 200 to 2000 nM.
Regarding `CN(C(=O)[C@H](CC(C)(C)C)NC(=O)C(F)(F)F)[C@@H](CC1CC1)C(=O)N1C[C@@]2(C[C@H]1C#N)Oc1cccnc1NC2=O` [Compound 233], the EC50 was 100 to 1000 nM in series [1] (class symbols) and less than 100 nM in series [4] (class symbols). Besides, the CC50 in [2] is more than 10 µM; in series [3], more than 1000 nM. Further, the IC50 on SARS-Cov-2 3CLpro (read-out: SARS-Cov-2 (IC50)) is less than 20 nM.
With `CN(C(=O)[C@H](CC1CC1)NC(=O)C(F)(F)C(F)(F)F)[C@@H](CC1CC1)C(=O)N1C[C@@]2(C[C@H]1C#N)Oc1ncccc1NC2=O` [Compound 184], the concentration giving a half-maximal response (EC50) was less than 100 nM in series [1] (Betacoronavirus 1, OC43, HeLa, class symbols) and less than 100 nM in series [4] (Severe acute respiratory syndrome coronavirus 2, class symbols). In “in vitro”, this compound gave a CC50 of more than 1000 nM. In series [5], the CC50 at 6 days is more than 10 µM. Besides, the IC50 on SARS-Cov-2 3CLpro (read-out: SARS-Cov-2 (IC50)) is less than 20 nM.

These data come from patent US20240199647A1, “ANTI-VIRAL COMPOUNDS” (Aligos Therapeutics, Inc., priority 2022, published 2024).
